The record followed here is US7371769B2, “Tetrahydropyridin-4-yl indoles with a combination of affinity for dopamine-D2 receptors and serotonin reuptake sites” (Solvay Pharmaceuticals B.V., priority 2004, dated 2008).

Series [1] deals with T1, dopamine-D2 receptors (Rattus norvegicus, UniProt P61169).
T1 construct: labels dopamine receptors in rat pituitary and brain; from tissue; host or cells: rat pituitary / brain (from the title of the cited method only)
Kind of series: In vitro affinity for dopamine-D2 receptors ([3H]-spiroperidol receptor binding assay). The conditions noted are these: read-out: Dopamine-D2 pKi (converted). The procedure: In vitro Affinity for Dopamine-D2 Receptors
Affinity of the compounds for dopamine-D2 receptors was determined using the receptor binding assay described by I. Creese, R. Schneider and S. H. Snyder: “[^3H]-Spiroperidol labels dopamine receptors in rat pituitary and brain”, Eur. J. Pharmacol., 46, 377-381,1977.
(§1) The affinity of the compounds of the invention for dopamine-D2 receptors and serotonine reuptake sites was determined as described above. From the binding affinity measured for a given compound of formula (1), one can estimate a theoretical lowest effective dose. At a concentration of the compound equal to twice the measured Ki-value, 100% of the receptors likely will be occupied by the compound. Converting that concentration to mg of compound per kg of patient yields a theoretical lowest effective dose, assuming ideal bioavailability. Pharmacokinetic, pharmacodynamic, and other considerations may alter the dose actually administered to a higher or lower value. The dosage expediently administered is 0.001-1000 mg/kg, preferably 0.1-100 mg/kg of patient's bodyweight.

Series [2] concerns the target T2, serotonin reuptake sites (Rattus norvegicus, UniProt P31652).
T2 construct: from tissue; host or cells: rat cortical membranes (from the title of the cited method only)
The series is described as follows: In vitro affinity for serotonin reuptake sites ([3H]-paroxetine binding assay). The conditions noted are these: read-out: 5-HT reuptake pKi (converted). The procedure: In vitro Affinity for Serotonin Reuptake Sites
Affinity of the compounds for serotonin reuptake sites was determined using the receptor binding assay described by E. Habert et al.,: “Characterisation of [^3H]-paroxetine binding to rat cortical membranes”, Eur. J. Pharmacol., 118, 107-114, 1985.
as §1

Structures can show the parent of a compound that is named as a salt.

T2 sequence (P31652 whole entry): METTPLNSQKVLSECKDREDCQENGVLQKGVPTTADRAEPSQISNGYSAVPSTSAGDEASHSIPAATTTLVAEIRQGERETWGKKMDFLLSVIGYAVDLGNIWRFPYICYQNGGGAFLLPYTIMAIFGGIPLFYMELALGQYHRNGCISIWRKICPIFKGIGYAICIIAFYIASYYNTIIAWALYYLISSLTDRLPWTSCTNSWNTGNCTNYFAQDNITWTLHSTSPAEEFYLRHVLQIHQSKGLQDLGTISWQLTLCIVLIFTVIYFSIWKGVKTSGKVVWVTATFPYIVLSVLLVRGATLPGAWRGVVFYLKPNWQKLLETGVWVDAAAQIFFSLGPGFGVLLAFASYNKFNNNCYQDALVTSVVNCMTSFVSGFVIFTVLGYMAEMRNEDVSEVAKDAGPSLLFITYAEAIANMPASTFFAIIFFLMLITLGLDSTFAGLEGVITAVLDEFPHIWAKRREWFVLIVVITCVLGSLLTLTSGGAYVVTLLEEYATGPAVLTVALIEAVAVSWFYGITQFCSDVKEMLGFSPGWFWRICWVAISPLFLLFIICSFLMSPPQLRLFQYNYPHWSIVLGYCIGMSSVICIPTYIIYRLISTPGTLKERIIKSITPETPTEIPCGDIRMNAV
T1 sequence (P61169 whole entry): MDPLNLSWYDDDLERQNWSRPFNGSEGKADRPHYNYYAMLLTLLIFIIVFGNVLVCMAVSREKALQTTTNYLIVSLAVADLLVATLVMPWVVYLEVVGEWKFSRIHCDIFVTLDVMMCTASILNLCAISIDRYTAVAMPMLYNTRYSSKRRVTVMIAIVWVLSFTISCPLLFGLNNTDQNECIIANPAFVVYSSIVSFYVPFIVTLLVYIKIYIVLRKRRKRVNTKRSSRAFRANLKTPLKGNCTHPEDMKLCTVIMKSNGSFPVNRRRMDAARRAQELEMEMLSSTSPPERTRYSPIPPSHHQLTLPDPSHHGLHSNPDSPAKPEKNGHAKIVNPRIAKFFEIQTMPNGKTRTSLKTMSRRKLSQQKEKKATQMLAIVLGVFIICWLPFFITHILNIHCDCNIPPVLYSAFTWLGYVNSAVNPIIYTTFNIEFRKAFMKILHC

On to `Cc1ccn2c(=O)c(CCN3CC=C(c4c[nH]c5ccccc45)CC3)c(C)nc2c1` [Compound 15], for which the Ki in series [1] is 7.94 nM; in series [2] it was 3.98 nM. Turning to `Cc1nc2n(c(=O)c1CCN1CC=C(c3c[nH]c4ccccc34)CC1)CCS2` [Compound 10], the Ki was 15.8 nM in series [1] and 1.58 nM in series [2]. In the case of `CSc1nc(C)c(CCN2CC=C(c3c[nH]c4ccccc34)CC2)c(=O)[nH]1` [Compound 14], the Ki in series [1] is 100 nM; in series [2], 50.1 nM. As usually defined, the melting point is the temperature of the solid-liquid transition. In turn, `Cc1nc2cc(-c3ccccc3)ccn2c(=O)c1CCN1CC=C(c2c[nH]c3ccccc23)CC1` (as salt: salt) [Compound 27] had a melting point of 211 to 224 °C.

Turning to `CSc1nc(C)c(CCN2CC=C(c3c[nH]c4ccc(F)cc34)CC2)c(=O)n1C` [Compound 19], the Ki in series [1] is 6.31 nM; in series [2] it was 25.1 nM. Take `Cc1nc2ccccn2c(=O)c1CCN1CC=C(c2c[nH]c3ccccc23)CC1` [Compound 1]: the Ki in series [1] was 20 nM; in series [2], 1.58 nM. For the molecule `Cc1ncn(C)c(=O)c1CCN1CC=C(c2c[nH]c3ccc(F)cc23)CC1` (as salt: salt) [Compound 33], the melting point is 234 to 235 °C (dec.). Still for that read-out and setting: as for `Cc1ccn2c(=O)c(CCN3CC=C(c4c[nH]c5ccccc45)CC3)c(C)nc2c1` (as salt: HCl) [Compound 15], the figure is 261 to 264 °C. As for `CCc1ccn2c(=O)c(CCN3CC=C(c4c[nH]c5ccc(F)cc45)CC3)c(C)nc2c1` [Compound 24], the Ki is 10 nM in series [1] and 7.94 nM in series [2]. In the case of `Cc1nc2c(C)cccn2c(=O)c1CCN1CC=C(c2c[nH]c3ccccc23)CC1` (as salt: salt) [Compound 22, 3-[2-[4-(1H-indol-3-yl)-1,2,3,6-tetrahydropyridin-1-yl]-ethyl]-2,9-dimethyl-4H-pyrido[1,2-a]pyrimidin-4-one], the melting point lay in the range of 242 to 246 °C. With `CSc1nc(C)c(CCN2CC=C(c3c[nH]c4ccccc34)CC2)c(=O)n1C` (as salt: salt), the melting point fell in the range of 245 to 246 °C. As to `Cc1nc2cc(-c3ccccc3)ccn2c(=O)c1CCN1CC=C(c2c[nH]c3ccccc23)CC1` [Compound 27], the Ki in series [1] is 63.1 nM; in series [2] it was 0.316 nM. For `Cc1ccn2c(=O)c(CCN3CC=C(c4c[nH]c5ccc(F)cc45)CC3)c(C)nc2c1` [Compound 21], in that order: 31.6 nM and 0.158 nM. As to `CCc1ccn2c(=O)c(CCN3CC=C(c4c[nH]c5ccc(F)cc45)CC3)c(C)nc2c1` (as salt: salt) [Compound 24], the melting point is 198 to 201 °C.

`Cc1nc2c(C)cccn2c(=O)c1CCN1CC=C(c2c[nH]c3ccccc23)CC1` [Compound 22, 3-[2-[4-(1H-indol-3-yl)-1,2,3,6-tetrahydropyridin-1-yl]-ethyl]-2,9-dimethyl-4H-pyrido[1,2-a]pyrimidin-4-one]: the Ki is 7.94 nM in series [1] and 1.58 nM in series [2]. For the molecule `Cc1ncn(C)c(=O)c1CCN1CC=C(c2c[nH]c3ccc(F)cc23)CC1` [Compound 33], the Ki in series [1] was 50.1 nM; in series [2], 3.16 nM. For `Cc1nc2ccccn2c(=O)c1CCN1CC=C(c2c[nH]c3ccccc23)CC1` (as salt: HCl) [Compound 1], the melting point is 205 °C (dec.). In the case of `CSc1nc(C)c(CCN2CC=C(c3c[nH]c4ccc(F)cc34)CC2)c(=O)n1C` (as salt: salt) [Compound 19], the melting point was 229 °C (dec.). The molecule `Cc1nc2c(C)cccn2c(=O)c1CCN1CC=C(c2c[nH]c3ccc(F)cc23)CC1` (as salt: salt) gave a melting point of 229 to 230 °C. Regarding `Cc1nc2sccn2c(=O)c1CCN1CC=C(c2c[nH]c3ccccc23)CC1` [Compound 11], the figures for the Ki in series [1] and in series [2] were 10 nM and 2.51 nM, respectively.

For the molecule `COc1nc(C)c(CCN2CC=C(c3c[nH]c4ccccc34)CC2)c(=O)n1C` [Compound 18, 5-[2-[4-(1H-indol-3-yl)-1,2,3,6-tetrahydropyridin-1-yl]ethyl]-2-methoxy-3,6-dimethyl-3H-pyrimidin-4-one], the figures for the Ki in series [1] and in series [2] were 31.6 nM and 0.794 nM, respectively. Turning to `Cc1nc2ccccn2c(=O)c1CCN1CC=C(c2c[nH]c3ccc(F)cc23)CC1` (as salt: salt) [Compound 7], the melting point was 226 to 227 °C (dec.). For `CSc1nc(C)c(CCN2CC=C(c3cn(C)c4ccccc34)CC2)c(=O)n1C` [Compound 20], the Ki was 100 nM in series [1] and 7.94 nM in series [2]. The molecule `COc1nc(C)c(CCN2CC=C(c3c[nH]c4ccccc34)CC2)c(=O)n1C` (as salt: HCl) [Compound 18, 5-[2-[4-(1H-indol-3-yl)-1,2,3,6-tetrahydropyridin-1-yl]ethyl]-2-methoxy-3,6-dimethyl-3H-pyrimidin-4-one] gave a melting point of 209 to 211 °C. As for `Cc1nc2ccccn2c(=O)c1CCN1CC=C(c2c[nH]c3ccc(F)cc23)CC1` [Compound 7], the Ki was 15.8 nM in series [1] and 0.316 nM in series [2].
